Literature values as cited in patent US20250283177A1, “BIOMARKERS AND METHODS OF USE THEREOF FOR TREATMENT OF PERIPHERAL T-CELL LYMPHOMA” (BOARD OF REGENTS OF THE UNIVERSITY OF NEBRASKA, priority 2022, published 2025).
Read-outs that look alike come from different tables or passages of the source.

B1: mogamulizumab (antibody, chains of the INN, looked up, V domains shown)
VH: EVQLVESGGDLVQPGRSLRLSCAASGFIFSNYGMSWVRQAPGKGLEWVATISSASTYSYYPDSVKGRFTISRDNAKNSLYLQMNSLRVEDTALYYCGRHSDGNFAFGYWGQGTLVTVSS
VL: DVLMTQSPLSLPVTPGEPASISCRSSRNIVHINGDTYLEWYLQKPGQSPQLLIYKVSNRFSGVPDRFSGSGSGTDFTLKISRVEAEDVGVYYCFQGSLLPWTFGQGTKVEIK

Experiments:
[1] = test system: peripheral T-cell lymphoma (PTCL); details: for Overall response rate by common subtype: Phase II studies
[2] = test system: subgroups of PTCL

Row | Molecule | Overall response rate by common subtype ([1]; subtype AITL) | Overall response rate by common subtype ([1]; subtype ALCL) | Overall response rate by common subtype ([1]; subtype PTCL-NOS) | Benefit in PTCL subgroup ([2]; ALK+ALCL) | Responsiveness to therapy ([1]; ALK(−) ALCL) | Benefit in PTCL subgroup ([2]; CD30+ PTCL, particularly ALCL) | Benefit in PTCL subgroup ([2]; ATLL)
1 | O=C(/C=C/c1cccc(S(=O)(=O)Nc2ccccc2)c1)NO [Belinostat] | 46% | 15% | 23% |  |  |  | 
2 | C[C@@H](Oc1cc(-c2cnn(C3CCNCC3)c2)cnc1N)c1c(Cl)ccc(F)c1Cl [Crizotinib] |  |  |  | striking benefits |  |  | 
3 | C#CCC(Cc1cnc2nc(N)nc(N)c2n1)c1ccc(C(=O)N[C@@H](CCC(=O)O)C(=O)O)cc1 (stereo partly shown) [Pralatrexate] | 8% | 29% | 31% |  |  |  | 
4 | Brentuximab vedotin | 54% | 86% | 33% |  | highly responsive | striking benefits | 
5 | B1 |  |  |  |  |  |  | striking benefits
